Measured values: PMC8151276, “An Integrated Approach toward NanoBRET Tracers for Analysis of GPCR Ligand Engagement” (Molecules, 2021)

Target: T1, CHRM5 (Homo sapiens, UniProt P08912)
T1 construct: purchased Promega (in-house HiBiT-GPCR construct library, NanoBRET)
T1 sequence (P08912 1-532): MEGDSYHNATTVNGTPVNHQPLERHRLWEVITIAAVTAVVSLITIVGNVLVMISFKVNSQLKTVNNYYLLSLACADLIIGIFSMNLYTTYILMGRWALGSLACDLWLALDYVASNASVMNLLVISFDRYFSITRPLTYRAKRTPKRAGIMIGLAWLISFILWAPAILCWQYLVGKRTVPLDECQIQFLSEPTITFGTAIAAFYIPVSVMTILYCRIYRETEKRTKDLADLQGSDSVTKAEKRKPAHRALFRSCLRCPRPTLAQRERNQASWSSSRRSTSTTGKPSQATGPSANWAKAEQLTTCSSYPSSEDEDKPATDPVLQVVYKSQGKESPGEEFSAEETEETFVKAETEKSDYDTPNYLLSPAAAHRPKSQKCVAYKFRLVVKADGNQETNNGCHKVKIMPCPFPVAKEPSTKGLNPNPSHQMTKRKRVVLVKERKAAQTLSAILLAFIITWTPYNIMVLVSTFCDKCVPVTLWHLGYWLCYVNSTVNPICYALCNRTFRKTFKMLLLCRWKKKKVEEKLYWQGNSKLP
Test: NanoBRET screen HiBiT-CHRM5 in HEK293
Format: binding
Experimental: Each tracer candidate was screened across the entire library of HiBiT-GPCR constructs using NanoBRET as the detection modality. As depicted in Figure 4A, the specificity of interactions was evaluated through decrease in BRET due to competitive displacement of a bound tracer by excess parental compound. Each tracer was analyzed for binding to each HiBiT-GPCR fusion in the absence and in the presence of competing parental compound. Briefly, HEK293 cells were transfected with HiBiT-GPCR constructs diluted into promoterless DNA to reduce expression and maximize translocation to the cell surface. Each tracer candidate was then screened at concentrations of 1 μM and 0.1 μM across cells expressing these fusions. Cells were treated for 1.5 h with tracer either alone or in the presence of 20 μM competing parental compound (i.e., control). BRET was measured upon addition of purified LgBiT and subsequent complementation with HiBiT genetically fused to a GPCR. The specificity of interactions was assessed through a decrease in BRET signal due to competitive displacement of the bound tracer. To further gauge the robustness of these interactions, the fold response over the control (i.e., BRETtracer/BRETcontrol) was calculated. We chose a 1.5-fold response, which translates to ≥7-fold signal over noise as the minimal threshold required to score an interaction as positive.
HiBiT-GPCR DNA constructs were diluted in 10 mM Tris pH 8 to a final concentration of 0.01 μg/μL, arrayed in 96-well plates and stored at −20 °C. For transfection, HEK293 cells were suspended in Opti-MEM (without phenol red) supplemented with 2% fetal bovine serum (Seradigm) and 100 units/mL penicillin–streptomycin (Gibco) at a final concentration of 220,000 cells/mL and dispensed into white 96-well plates at 90 μL/well. Subsequent transfections and screens were carried using an Agilent Bravo Automated Liquid Handling Platform. First, the 96-well HiBiT DNA arrays were diluted 25-fold in Opti-MEM (without serum or phenol red) to a final concentration of 0.0004 μg/μL and 20 μL of the diluted DNAs were transferred into new 96-well plates. Next, promoterless carrier DNA (1 μg/μL) was diluted 25-fold (0.04 μg/μL) and then dispensed into the diluted arrays at 20 μL/well. Following brief mixing, Viafect transfection reagent (Promega) diluted 16-fold into Opti-MEM was dispensed into the plates at 40 μL/well. After mixing by pipetting, plates were incubated for 10 min on the pipetting station deck. The DNA-transfection reagent complexes were then added to plates containing cells. To facilitate the screen, 10 μL of DNA-transfection reagent complexes were added in duplicates to the top 4 and bottom 4 rows, resulting in two identical 48-well arrays per plate. Plates with transfected cells were incubated for 18–20 h at 37 °C/5% CO2. A screen of each tracer across the entire library using two different concentrations requires duplicate plates of transfected cells. Depending on the number of tracers being screened, transfections can be scaled up using the same ratios. The next day, for each tracer, four 20× screening solutions in tracer dilution buffer (Promega) were prepared: two duplicates at final concentration of 20 μM and two duplicates at a final concentration of 2 μM. […] The four resulting solutions were diluted 4-fold in Opti-MEM without serum or phenol red to generate 5× solutions (5 µM and 0.5 µM tracer +/− 100 μM competing compound). To screen the library, a BioTek MultiFlo FX liquid dispenser was used to dispense 22.5 µL of tracer solution to the top 4 rows and 22.5 µL tracer + competing compound solution to the 4 bottom rows. Plates were briefly mixed on an orbital shaker and incubated for 1.5 h at room temperature. […] Plates were briefly mixed on an orbital shaker and incubated for 15 min to allow complementation.

CN1CCN(C2=Nc3cc(Cl)ccc3Nc3ccc(CNC(=O)CCOCCOCCOCCOCCNC(=O)CCc4ccc5n4[B-](F)(F)[N+]4=C(c6ccc[nH]6)C=CC4=C5)cc32)CC1 [Clozapine-b-2-NB590]
NanoBRET Fold Response (CHRM5, 0.1μM tracer): 1.00

CN(C)CCC=C1c2ccccc2CCc2ccc(C(=O)NCCNC(=O)CCOCCOCCOCCOCCNC(=O)CCc3ccc4n3[B-](F)(F)[N+]3=C(c5ccc[nH]5)C=CC3=C4)cc21 [Amitriptyline-b-2-NB590]
NanoBRET Fold Response (tracer at 0.1μM, listed as amitriptyline-b-2-NB590): 3.47
NanoBRET Fold Response (tracer at 1μM, listed as amitriptyline-b-2-NB590): 4.23

CCOC(=O)c1cc(C#N)c(N2CCC(C(=O)NS(=O)(=O)Cc3ccccc3/C=C/C(=O)NCCNC(=O)CCc3ccc4n3[B-](F)(F)[N+]3=C(c5ccc[nH]5)C=CC3=C4)CC2)nc1C [AZD1283-1-NB590]
NanoBRET Fold Response (CHRM5, 0.1μM): 1.08
NanoBRET Fold Response (CHRM5, 1μM): 1.08

CC(C)N(CC[C@H](c1ccccc1)c1cc(CCNC(=O)CCOCCOCCOCCOCCNC(=O)CCc2ccc3n2[B-](F)(F)[N+]2=C(c4ccc[nH]4)C=CC2=C3)ccc1O)C(C)C [Tolterodine-2-NB590]
NanoBRET Fold Response (CHRM5, tracer 0.1μM): 3.27
NanoBRET Fold Response (CHRM5, tracer 1μM): 2.82

CC(C)N(CC[C@H](c1ccccc1)c1cc(CCNC(=O)c2ccc(CNC(=O)CCc3ccc4n3[B-](F)(F)[N+]3=C(c5ccc[nH]5)C=CC3=C4)cc2)ccc1O)C(C)C [Tolterodine-BZ-NB590]
NanoBRET Fold Response (CHRM5, tracer 0.1μM): 2.88
NanoBRET Fold Response (CHRM5, tracer 1μM): 1.94

O=C(CCOCCOCCOCCOCCNC(=O)CCc1ccc2n1[B-](F)(F)[N+]1=C(c3ccc[nH]3)C=CC1=C2)NCCCN1CCN(C2=Nc3ccccc3Oc3ccc(Cl)cc32)CC1 [Loxapine-a-2-NB590]
NanoBRET Fold Response (CHRM5, tracer 0.1μM): 0.99
NanoBRET Fold Response (CHRM5, tracer 1μM): 0.89

CN1CCN(C2=Nc3cc(Cl)ccc3N(CC(=O)NCCOCCOCCOCCOCCNC(=O)CCc3ccc4n3[B-](F)(F)[N+]3=C(c5ccc[nH]5)C=CC3=C4)c3ccccc32)CC1 [Clozapine-c-2-NB590]
NanoBRET Fold Response (CHRM5, 0.1μM tracer): 1.00
NanoBRET Fold Response (CHRM5, 1μM tracer): 0.86

CN(C)CCC=C1c2ccccc2CCc2ccc(C(=O)NCCNC(=O)CCOCCOCCOCCOCCNC(=O)CCc3ccc4n3[B-](F)(F)[N+]3=C(c5ccc[nH]5)C=CC3=C4)cc21 [Amitriptyline-a-2-NB590]
NanoBRET Fold Response (tracer at 1μM): 1.23

Cc1nc2n(c(=O)c1CCN1CCC(c3noc4cc(F)ccc34)CC1)CCCC2OC(=O)NCCOCCOCCOCCOCCNC(=O)CCc1ccc2n1[B-](F)(F)[N+]1=C(c3ccc[nH]3)C=CC1=C2 (centres unmarked) [Risperidone-2-NB590]
NanoBRET Fold Response (CHRM5, tracer 0.1μM): 1.07
NanoBRET Fold Response (CHRM5, tracer 1μM): 0.95

COc1ccc2[nH]c(-c3ccc(CNC(=O)CCOCCOCCOCCOCCNC(=O)CCc4ccc5n4[B-](F)(F)[N+]4=C(c6ccc[nH]6)C=CC4=C5)cc3)c(CCNC(C)=O)c2n1 [AzomelatoninICO9-2-NB590]
NanoBRET Fold Response (0.1μM tracer): 0.90
NanoBRET Fold Response (1μM tracer): 0.97

COc1ccccc1N1CCN(CCCCN2C(=O)c3ccc(CNC(=O)CCOCCOCCOCCOCCNC(=O)CCc4ccc5n4[B-](F)(F)[N+]4=C(c6ccc[nH]6)C=CC4=C5)cc3C2=O)CC1 [NAN-190-2-NB590]
NanoBRET Fold Response (CHRM5, tracer 0.1μM): 0.90

O=C(CCc1ccc2n1[B-](F)(F)[N+]1=C(c3ccc[nH]3)C=CC1=C2)NCCOCCOCCNC(=O)OCCOCCN1CCN(C2=Nc3ccccc3Sc3ccccc32)CC1 [Quetiapine-a-2-NB590]
NanoBRET Fold Response (CHRM5, tracer 0.1μM): 1.18
NanoBRET Fold Response (CHRM5, tracer 1μM): 1.36

O=C(CCOCCOCCOCCOCCNC(=O)CCc1ccc2n1[B-](F)(F)[N+]1=C(c3ccc[nH]3)C=CC1=C2)NCCCN1CCN(C2=Nc3cc(Cl)ccc3Nc3ccccc32)CC1 [Clozapine-a-2-NB590]
NanoBRET Fold Response (CHRM5, 0.1μM tracer): 1.10
NanoBRET Fold Response (CHRM5, 1μM tracer): 0.91

N#CN=C(NCCCOc1cccc(CN2CCCCC2)c1)NCCNC(=O)CCOCCOCCOCCOCCNC(=O)CCc1ccc2n1[B-](F)(F)[N+]1=C(c3ccc[nH]3)C=CC1=C2 [Aminopotentidine-2-NB590]
NanoBRET Fold Response (CHRM5, tracer 0.1μM): 1.02
NanoBRET Fold Response (CHRM5, tracer 1μM): 1.10

O=C(CCc1ccc2n1[B-](F)(F)[N+]1=C(c3ccc[nH]3)C=CC1=C2)NCc1ccc(C(=O)NCCOCCOCCNCC(O)COc2cccc3ccccc23)cc1 (centres unmarked) [Propranolol-3-NB590]
NanoBRET Fold Response (CHRM5, 0.1μM): 1.00
NanoBRET Fold Response (CHRM5, 1μM): 1.03

O=C(CCc1ccc2n1[B-](F)(F)[N+]1=C(c3ccc[nH]3)C=CC1=C2)NCc1ccc(C(=O)NCCOCCC(=O)N[C@@H]2CC[C@@]3(O)[C@H]4Cc5ccc(O)c6c5[C@@]3(CCN4CC3CC3)[C@H]2O6)cc1 [Naltrexone-3-NB590]
NanoBRET Fold Response (CHRM5, tracer 0.1μM): 1.18
NanoBRET Fold Response (CHRM5, tracer 1μM): 0.79

COc1ccccc1N1CCN(CCCCN2C(=O)c3ccc(CNC(=O)CCOCCNC(=O)c4ccc(CNC(=O)CCc5ccc6n5[B-](F)(F)[N+]5=C(c7ccc[nH]7)C=CC5=C6)cc4)cc3C2=O)CC1 [NAN-190-3-NB590]
NanoBRET Fold Response (CHRM5, tracer 0.1μM): 1.00
NanoBRET Fold Response (CHRM5, tracer 1μM): 1.24

Cc1cc2c(s1)Nc1ccccc1N=C2N1CCN(CCCNC(=O)CCOCCOCCOCCOCCNC(=O)CCc2ccc3n2[B-](F)(F)[N+]2=C(c4ccc[nH]4)C=CC2=C3)CC1 [Olanzapine-a-2-NB590]
NanoBRET Fold Response (CHRM5, tracer 0.1μM): 1.05
NanoBRET Fold Response (CHRM5, tracer 1μM): 1.00

CCCn1c(=O)c2[nH]c(-c3ccc(OCC(=O)NCCNC(=O)CCOCCNC(=O)c4ccc(CNC(=O)CCc5ccc6n5[B-](F)(F)[N+]5=C(c7ccc[nH]7)C=CC5=C6)cc4)cc3)nc2n(CCC)c1=O [XAC-3-NB590]
NanoBRET Fold Response (CHRM5, tracer 0.1μM): 0.98
NanoBRET Fold Response (CHRM5, tracer 1μM): 0.86

CN(CCC=C1c2ccccc2CCc2ccccc21)C(=O)CCOCCOCCOCCOCCNC(=O)CCc1ccc2n1[B-](F)(F)[N+]1=C(c3ccc[nH]3)C=CC1=C2 [Amitriptyline-e-2-NB590]
NanoBRET Fold Response (tracer at 1μM): 1.14

COc1ccc2c(n1)c(CCNC(C)=O)cn2CCNC(=O)CCc1ccc2n1[B-](F)(F)[N+]1=C(c3ccc[nH]3)C=CC1=C2 [Azamelatonin-1-NB590]
NanoBRET Fold Response (0.1μM tracer): 0.89
NanoBRET Fold Response (1μM tracer): 1.23
